Common to all, as to format: in vivo
The subject of assay [1] is Cowpea aphid (Aphis craccivora). Kind of assay: B.3 Cowpea aphid leaf disk test. Particulars: foliar, 120 h. The procedure:
If not otherwise specified, the test solutions are prepared as follows:
The active compound is dissolved at the desired concentration in a mixture of 1:1 (vol:vol) distilled water: acetone. The test solution is prepared at the day of use.
B.3 Cowpea aphid (Aphis craccivora):
For evaluating control of Cowpea aphid through contact or systemic means the test unit consists of 24-well-microtiter plates containing broad bean leaf disks.
The compounds are formulated using a solution containing 75% v/v water and 25% v/v DMSO. Different concentrations of formulated compounds are sprayed onto the leaf disks at 2.5 μl, using a custom built micro atomizer, at two replications.
After application, the leaf disks are air-dried and 5-8 adult aphids placed on the leaf disks inside the microtiter plate wells. The aphids are then allowed to suck on the treated leaf disks and incubated at about 23±1° C. and about 50±5% relative humidity for 5 days. Aphid mortality and fecundity is then visually assessed.

Assay [2] relates to Rice green leafhopper (Nephotettix virescens). Kind of assay: B.1 Rice green leafhopper, sprayed rice seedlings. The conditions noted are these: 72 h. The procedure: B.1 Rice Green Leafhopper (Nephotettix virescens):
Rice seedlings are cleaned and washed 24 hours before spraying. The active compounds are formulated in 50:50 acetone:water (vol:vol), and 0.1% vol/vol surfactant (EL 620) is added. Potted rice seedlings are sprayed with 5 ml test solution, air dried, placed in cages and inoculated with 10 adults. Treated rice plants are kept at about 28-29° C. and relative humidity of about 50-60%. Percent mortality is recorded after 72 hours.

In assay [3] the test system is Rice brown plant hopper (Nilaparvata lugens). Kind of assay: B.2 Rice brown plant hopper, sprayed rice seedlings. The conditions noted are these: 72 h. The procedure: B.2 Rice Brown Plant Hopper (Nilaparvata lugens):
Rice seedlings are cleaned and washed 24 hours before spraying. The active compounds are formulated in 50:50 acetone:water (vol:vol) and 0.1% vol/vol surfactant (EL 620) is added. Potted rice seedlings are sprayed with 5 ml test solution, air dried, placed in cages and inoculated with 10 adults. Treated rice plants are kept at about 28-29° C. and relative humidity of about 50-60%. Percent mortality is recorded after 72 hours.

The test system of assay [4] is vetch aphid (Megoura viciae). Kind of assay: Test 1 vetch aphid, leaf disks (mixtures). Particulars: Table 1, solo application I-R-1, use rate 20 ppm. An excerpt:
Synergism can be described as an interaction where the combined effect of two or more compounds is greater than the sum of the individual effects of each of the compounds. The presence of a synergistic effect in terms of percent control, between two mixing partners (X and Y) can be calculated using the Colby equation (Colby, S. R., 1967, Calculating Synergistic and Antagonistic Responses in Herbicide Combinations, Weeds, 15, 20-22):
When the observed combined control effect is greater than the expected combined control effect (E), then the combined effect is synergistic.
The analysis of synergism or antagonism between the mixtures or compositions was determined using Colby's equation.
For evaluating control of vetch aphid (Megoura viciae) through contact or systemic means the test unit consisted of 24-well-microtiter plates containing broad bean leaf disks.
The compounds or mixtures were formulated using a solution containing 75% water and 25% DMSO. Concentrations of formulated compounds or mixtures were sprayed onto the leaf disks at 2.5 μl, using a custom built micro atomizer, at two replications. […]
After application, the leaf disks were air-dried and 5-8 adult aphids placed on the leaf disks inside the microtiter plate wells. […] Aphid mortality and fecundity was then visually assessed.

Assay [5] concerns boll weevil (Anthonomus grandis). Kind of assay: Test 3 boll weevil, insect diet with eggs (mixtures). As to the method:
(§1) For evaluating control of boll weevil (Anthonomus grandis) the test unit consisted of 24-well-microtiter plates containing an insect diet and 20-30 A. grandis eggs.
(§2) The compounds or mixtures were formulated using a solution containing 75% water and 25% DMSO. Concentrations of formulated compounds or mixtures were sprayed onto the insect diet at 20 μl, using a custom built micro atomizer, at two replications.
(§3) For experimental mixtures in these tests identical volumes of both mixing partners at the desired concentrations respectively, were mixed together.
(§4) After application, microtiter plates were incubated at 23±1° C., 50±5% RH for 5 days. Egg and larval mortality was then visually assessed.

Assay [6] deals with tobacco budworm (Heliothis virescens). Kind of assay: Test 4 tobacco budworm, insect diet with eggs (mixtures). The procedure:
(§5) For evaluating control of tobacco budworm (Heliothis virescens) the test unit consisted of 96-well-microtiter plates containing an insect diet and 15-25 H. virescens eggs.
The compounds or mixtures were formulated using a solution containing 75% water and 25% DMSO. Concentrations of formulated compounds or mixtures were sprayed onto the insect diet at 10 μl, using a custom built micro atomizer, at two replications.
as §3
(§6) After application, microtiter plates were incubated at 28±1° C., 80±5% RH for 5 days. Egg and larval mortality was then visually assessed.

Assay [7] concerns Greenhouse Whitefly (Trialeurodes vaporariorum). Kind of assay: Greenhouse Whitefly, egg plant leaf disk (table 5, mixtures). Particulars: solo application I-R-1, use rate 2 ppm. As to the method: For evaluating control of Greenhouse Whitefly (Trialeurodes vaporariorum) the test unit consisted of 96-well-microtiter plates containing a leaf disk of egg plant leaf disk with white fly eggs. The compounds or mixtures were formulated using a solution containing 75% water and 25% DMSO. Concentrations of formulated compounds or mixtures were sprayed onto the […] at 2.5 μl, using a custom built micro atomizer, at two replications.
as §3
After application, microtiter plates were incubated at 23±1° C., 65±5% RH for 6 days. Mortality of hatched crawlers was then visually assessed.

In assay [8] the test system is green peach aphid (Myzus persicae). Kind of assay: Test 8 green peach aphid, artificial diet (mixtures).
Text: For evaluating control of green peach aphid (Myzus persicae) through systemic means the test unit consisted of 96-well-microtiter plates containing liquid artificial diet under an artificial membrane.
The compounds or mixtures were formulated using a solution containing 75% water and 25% DMSO. Concentrations of formulated compounds or mixtures were pipetted into the aphid diet, using a custom built pipetter, at two replications.
as §3
After application, 5-8 adult aphids were placed on the artificial membrane inside the microtiter plate wells. The aphids were then allowed to suck on the treated aphid diet and incubated at 23±1° C., 50±5% RH for 3 days. Aphid mortality and fecundity was then visually assessed.

The test system of assay [9] is boll weevil (Anthonomus grandis). Kind of assay: Test 9 boll weevil, insect diet with eggs (mixtures). The procedure:
as §1, §2, §3, §4

Assay [10] relates to tobacco budworm (Heliothis virescens). Kind of assay: Test 10 tobacco budworm, insect diet with eggs (mixtures). As to the method:
as §5
The compounds or mixtures were formulated using a solution containing 75% water and 25% DMSO. Different concentrations of formulated compounds or mixtures were sprayed onto the insect diet at 10 μl, using a custom built micro atomizer, at two replications.
as §3, §6

For `C[n+]1c([O-])c(-c2ccccc2)c(=O)n2c1SC[C@@H]2c1cnc(Cl)s1` [I-R-1, (3R)-3-(2-chlorothiazol-5-yl)-8-methyl-7-oxo-6-phenyl-2,3-dihydrothiazolo[3,2-a]pyrimidin-4-ium-5-olate], the mortality at 1 ppm in [1] is 90%; in assay [2], 100%; in assay [3], 90%. The Average control % came out at 0% in assay [4]; 0% in [5] (Table 3.1, solo application I-R-1, use rate 50 ppm); 0% in assay [5] (Table 3.2, solo application I-R-1, use rate 2 ppm); 0% in [5] (Table 3.3, solo application I-R-1, use rate 2 ppm); 0% in assay [6] (Table 4.1, solo application I-R-1, use rate 10 ppm); 0% in [6] (Table 4.2, solo application I-R-1, use rate 0.4 ppm). In addition, the Average control % in assay [7] is recorded as 0%; in [8] (Table 8.1, solo application I-R-1, use rate 0.4 ppm) it was 0%; in [8] (Table 8.2, solo application I-R-1, use rate 0.4 ppm), 0%; in assay [9] (Table 9.1, solo application I-R-1, use rate 50 ppm), 25%; in assay [9] (Table 9.2, solo application I-R-1, use rate 10 ppm) it was 25%; in assay [10] (Table 10.1, solo application I-R-1, use rate 10 ppm) it was 0%. In addition, the Average control % in assay [10] (Table 10.2, solo application I-R-1, use rate 10 ppm) is 25%.

Broadly, the mortality is the share of the test organisms that died. Higher therefore signals a strong lethal effect.

For the origin of these results see patent US11578083B2, “Pyrimidinium compounds and their mixtures for combating animal pests” (BASF SE, priority 2017, dated 2023).
